Laboratory results reported in patent publication EP1342719B1, “Benzodiazepine derivatives useful as CCK-Receptor Antagonists” (Ferring BV, priority 1992, dated 1993).
Where two headings read alike, the source gives them in different places.

Key:
CCK-A receptors = biological target: T1, CCK-A receptors (Rattus norvegicus, UniProt P30551); assay: Measurement of binding affinity for CCK-A receptors ([3H]L-364,718 displacement, pancreas membrane preparation); set-up: species or system SD rat
T1 construct: The pancreas of an SD rat was homogenized; from tissue; host or cells: SD rat pancreas membrane preparation
T1 sequence (P30551 1-444): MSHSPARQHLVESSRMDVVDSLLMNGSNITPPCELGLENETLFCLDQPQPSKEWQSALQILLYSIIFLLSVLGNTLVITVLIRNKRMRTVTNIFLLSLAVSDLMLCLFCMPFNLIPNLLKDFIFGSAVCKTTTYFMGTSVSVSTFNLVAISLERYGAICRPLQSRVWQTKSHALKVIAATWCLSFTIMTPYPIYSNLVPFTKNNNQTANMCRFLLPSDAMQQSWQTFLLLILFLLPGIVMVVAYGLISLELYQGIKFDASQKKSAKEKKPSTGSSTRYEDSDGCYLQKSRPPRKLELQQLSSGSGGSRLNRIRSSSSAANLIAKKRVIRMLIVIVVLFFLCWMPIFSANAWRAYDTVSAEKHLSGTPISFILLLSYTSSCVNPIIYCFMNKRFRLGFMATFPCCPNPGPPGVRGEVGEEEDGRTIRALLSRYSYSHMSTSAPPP
Description: The pancreas of an SD rat was homogenized in a 20-fold volume of 50 mM Tris-HCl buffer (pH 7.7) by the use of a Polytrone-type homogenizer, the homogenate was twice centrifuged for 10 minutes at 50000 g by the use of an ultra-centrifuge, the precipitate thus obtained was suspended in a 40-fold volume of 50 mM Tris-HCl buffer (containing 0.2% BSA, 5 mM MgCl2, 0.1 mg/ml bacitracin and 5 mM DTT; pH 7.7), and the suspension was stored at -80°C until the membrane preparations were required.
The membrane preparations were then warmed to room temperature, diluted 1:10 with the buffer and incubated at 37°C for 30 minutes in the presence of [^3H]L-364,718 and the test compound then separated by suction filtration. Non-specific binding was determined in the presence of 1 µM L-364,718. The amount of labelled ligand bound to the receptor was measured by the use of a liquid scintillation counter; IC50 values were determined, being that concentration of test compound required to inhibit specific binding by 50%

CCK-B receptors = biological target: T2, CCK-B receptors (Rattus norvegicus, UniProt P30553); assay: Measurement of binding affinity for CCK-B receptors ([125I]BH-CCK-8 displacement, brain membrane preparation); set-up: species or system SD rats; settings: for A/B Ratio: selectivity, ratio IC50 (CCK-A)/IC50 (CCK-B)
T2 construct: the whole brain was immediately excised from each of the rats and homogenized; from tissue; host or cells: SD rat whole-brain membrane preparation
T2 sequence (P30553 whole entry): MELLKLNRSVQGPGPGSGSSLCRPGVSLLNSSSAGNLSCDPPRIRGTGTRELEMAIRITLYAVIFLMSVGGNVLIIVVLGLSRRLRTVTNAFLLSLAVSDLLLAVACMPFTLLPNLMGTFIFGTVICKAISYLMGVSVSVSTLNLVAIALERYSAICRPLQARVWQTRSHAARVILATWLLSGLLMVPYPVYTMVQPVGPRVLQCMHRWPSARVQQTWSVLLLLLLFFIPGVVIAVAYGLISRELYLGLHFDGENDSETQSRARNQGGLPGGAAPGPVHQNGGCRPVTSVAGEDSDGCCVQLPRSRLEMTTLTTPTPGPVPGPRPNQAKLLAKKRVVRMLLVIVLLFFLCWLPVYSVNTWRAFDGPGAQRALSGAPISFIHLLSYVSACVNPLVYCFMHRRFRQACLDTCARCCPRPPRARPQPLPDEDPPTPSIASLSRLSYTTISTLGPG
Description: About 100 SD rats were decapitated without anaesthesia, the whole brain was immediately excised from each of the rats and homogenized in 10-fold volume of 0.32 M aqueous solution of sucrose by the use of a Teflon-coated homogenizer, the homogenate thus obtained was centrifuged for ten minutes at 900 g by the use of a cooled centrifuge, and the supernatant was further centrifuged for 15 minutes at 11500 g. The precipitate thus obtained was dispersed in 50 mM Tris-HCl buffer (pH 7.4) containing 0.08% Triton X-100, this suspension was allowed to stand for 30 minutes and again centrifuged for 15 minutes at 11500 g, the precipitate thus obtained was washed twice with 5 mM Tris-HCl buffer and twice with 50 mM Tris-HCl buffer in that order with centrifugal separation, the washed precipitate was suspended in 50 mM Tris-HCl buffer, and the suspension thus obtained was stored at -80°C until the membrane preparation was required.
The membrane preparations were warmed to room temperature, diluted with 10 mM HEPES buffer (containing 130 mM NaCl, 5 mM MgCl2, 1 mM EGTA and 0.25 mg/ml bacitracin; pH 6.5) and incubated at 25°C for 120 minutes in the presence of [^125I]BH-CCK-8 and the test compound, then separated by suction filtration. Non-specific binding was determined in the presence of 1 µM CCK-8. The amount of labelled ligand bound to the receptor was measured by the use of a γ-counter; IC50 values were determined, being that concentration of test compound required to inhibit specific binding by 50%.

[1] = test system: pentagastrin-stimulated gastric acid secretion; assay: Inhibition of pentagastrin-stimulated gastric acid secretion in dog (Heidenhain pouch); assay type: in vivo, male beagle dogs; settings: maximum inhibition of stimulated acid output, oral, pentagastrin 8 µg/kg/hr infusion, mean for 3 - 5 animals
Description: Assays were performed using male beagle dogs (7 - 12 kg) two months after surgical preparation of Heidenhain pouches following the conventional procedure. Each dog was used only once per week.
The animals were deprived of food with free access to water for 18 hr prior to the experiment. The gastric juice was collected from the gastric canula by gravity drainage every 15 min, and acid output was determined by automatic titration with 0.05 N NaOH to pH 7.0 (Comtite-7, Hiranuma, Tokyo, Japan). Drugs were administered orally 3 hr after the start of the pentagastrin (8 µg/kg/hr) infusion. The effect of each drug was calculated as the percentage inhibition of stimulated acid output. […] Each result is a mean for 3 - 5 animals.

[2] = rat pancreas membranes, [3H]L-364,718, 37°C, 30 minutes, read-out: Receptor binding affinity IC50(nM) CCK-A
[3] = rat whole brain membranes, [125I]BH-CCK-8, 25°C, 120 minutes, read-out: Receptor binding affinity IC50(nM) CCK-B

SMILES	A/B Ratio (CCK-B receptors)	IC50 (CCK-A receptors) [nM]	IC50 (CCK-B receptors) [nM]	Inhibidon (dose) ([1]; 3 µmol/kg)	further results
CNc1cccc(NC(=O)N[C@@H]2N=C(c3ccccc3)c3ccccc3N(CC(=O)C(C)(C)C)C2=O)c1 [Example 56, N-((3R)-1-tert-Butylcarbonylmethyl-2,3-dihydro-2-oxo-5-phenyl-1H-1,4-benzodiazepin-3-yl)-N'-(3-methylaminophenyl) urea]	1,100	–	–	–	IC50 (CCK-A receptors; [2]): 120 nM; IC50 (CCK-B receptors; [3]): 0.11 nM
CCC(C)(C)C(=O)CN1C(=O)C(NC(=O)Nc2cccc(C)c2)N=C(c2ccccc2)c2ccccc21 (racemic) [Example 36, N-((3RS)-1-tert-Amylcarbonylmethyl-2,3-dihydro-2-oxo-5-phenyl-1H-1,4-benzodiazepin-3-yl)-N'-(3-methylphenyl) urea]	1,300	720	0.57	–	–
CC(C)(C)C(=O)CN1C(=O)C(NC(=O)Nc2cccc([N+](=O)[O-])c2)N=C(c2ccccc2)c2ccccc21 (racemic) [Example 45, N-((3RS)-1-tert-Butylcarbonylmethyl-2,3-dihydro-2-oxo-5-phenyl-1H-1,4-benzodiazepin-3-yl)-N'-(3-nitrophenyl) urea]	3,700	590	–	–	–
CN(C)c1cccc(NC(=O)NC2N=C(c3ccccn3)c3ccccc3N(CC(=O)C(C)(C)C)C2=O)c1 (racemic) [Example 38, N-((3RS)-1-tert-Butylcarbonylmethyl-2,3-dihydro-2-oxo-5-(2-pyridyl)-1H-1,4-benzodiazepin-3-yl)-N'-(3-dimethylaminophenyl) urea]	–	–	–	100% (3 µmol/kg)	–
CCC(C)(C)C(=O)CN1C(=O)C(NC(=O)Nc2cccc(C(=O)O)c2)N=C(c2ccccc2)c2ccccc21 (racemic) [Example 37, N-((3RS)-1-tert-Amylcarbonylmethyl-2,3-dihydro-2-oxo-5-phenyl-1H-1,4-benzodiazepin-3-yl)-N'-(3-carboxyphenyl) urea]	5,100	5600	1.1	–	–
Cc1cccc(NC(=O)NC2N=C(c3ccccn3)c3ccccc3N(CC(=O)C(C)(C)C)C2=O)c1 (racemic) [Example 27, N-((3RS)-1-tert-Butylcarbonylmethyl-2,3-dihydro-2-oxo-5-(2-pyridyl)-1H-1,4-benzodiazepin-3-yl)-N'-(3-methylphenyl) urea]	–	–	–	66% (3 µmol/kg)	–
CC(C)(C)C(=O)CN1C(=O)C(NC(=O)Nc2cccc(C(=O)O)c2)N=C(c2ccccn2)c2ccccc21 (racemic) [Example 39, N-((3RS)-1-tert-Butylcarbonylmethyl-2,3-dihydro-2-oxo-5-(2-pyridyl)-1H-1,4-benzodiazepin-3-yl)-N'-(3-carboxyphenyl) urea]	2,400	240	0.1	–	–
CN(C)c1cccc(NC(=O)NC2N=C(c3ccccc3)c3ccccc3N(CC(=O)C(C)(C)C)C2=O)c1 (racemic) [Example 41, N-((3RS)-1-tert-Butylcarbonylmethyl-2,3-dihydro-2-oxo-5-phenyl-1H-1,4-benzodiazepin-3-yl)-N'-(3-dimethylaminophenyl) urea]	1,100	6700	6.2	–	–
Cc1cccc(NC(=O)N[C@@H]2N=C(c3ccccc3)c3ccccc3N(CC(=O)C(C)(C)C)C2=O)c1 [Example 26, N-((3R)-1-tert-Butylcarbonylmethyl-2,3-dihydro-2-oxo-5-phenyl-1H-1,4-benzodiazepin-3-yl)-N'-(3-methylphenyl) urea]	–	–	–	53% (3 µmol/kg)	–
CN(C)c1cccc(NC(=O)N[C@@H]2N=C(c3ccccc3)c3ccccc3N(CC(=O)C(C)(C)C)C2=O)c1 [Example 64, N-((3R)-1-tert-Butylcarbonylmethyl-2,3-dihydro-2-oxo-5-phenyl-1H-1,4-benzodiazepin-3-yl)-N'-(3-dimethylaminophenyl) urea]	–	–	–	100% (3 µmol/kg)	–
CC(C)(C)C(=O)CN1C(=O)[C@H](NC(=O)Nc2cccc(N)c2)N=C(c2ccccc2)c2ccccc21 [Example 66, N-((3R)-1-tert-Butylcarbonylmethyl-2,3-dihydro-2-oxo-5-phenyl-1H-1,4-benzodiazepin-3-yl)-N'-(3-aminophenyl) urea]	1,900	–	–	–	IC50 (CCK-A receptors; [2]): 950 nM; IC50 (CCK-B receptors; [3]): 0.5 nM
Cc1cccc(NC(=O)N[C@@H]2N=C(c3ccccc3)c3ccccc3N(C)C2=O)c1 [reference compound]	410	–	–	–	IC50 (CCK-A receptors; [2]): 12000 nM; Inhibidon (dose) ([1]; 100 µmol/kg): 0% (100 µmol/kg); IC50 (CCK-B receptors; [3]): 29 nM
